# From patent publication US12052991B2, “Substituted pyridinyloxybenzenes and salts thereof and use thereof as herbicidal agents” (Bayer Aktiengesellschaft, priority 2018, dated 2024)
# Tests used:
# Assay type in all cases: in vivo
# [1] = test system: Digitaria sanguinalis (DIGSA); assay: Herbicidal post-emergence action (Table B10); conditions: visual rating about 3 weeks after treatment, 100% = plants have died, 0% = like control plants
# How it was run: (§1)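 Post-emergence spray, one-leaf stage (2–3 wk after sowing), sandy loam, greenhouse. WP/EC in water + 0.5% additive, 600 L/ha, 1280 or 320 g/ha. Visual % activity vs untreated after ~3 wk (0% = like control, 100% = plants dead).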
# [2] = test system: Alopecurus myosuroides (ALOMY); assay: Herbicidal post-emergence action (Table B9); conditions: rated visually after about 3 weeks, 100% = plants have died, 0% = like control plants
# How it was run: as §1
# Lolium rigidum (LOLRI) [3] = assay: Herbicidal post-emergence action (Table B2); conditions: 1280 g/ha; rated visually after about 3 weeks; 100% = plants have died, 0% = like control plants
# Method: (§2) Seeds of mono- and dicotyledonous weed plants were placed in plastic pots in sandy loam soil (doubly sown with in each case one species of mono- or dicotyledonous weed plants per pot), covered with soil and cultivated in a greenhouse under controlled growth conditions. 2 to 3 weeks after sowing, the test plants were treated at the one-leaf stage. The compounds of the invention, formulated in the form of wettable powders (WP) or as emulsion concentrates (EC), were applied onto the green parts of the plants as aqueous suspension or emulsion with addition of 0.5% additive at a water application rate of 600 liters per hectare (converted). After the test plants had been kept in the greenhouse under optimum growth conditions for about 3 weeks, the activity of the preparations was rated visually in comparison to untreated controls. For example, 100% activity=the plants have died, 0% activity=like control plants. Tables B1 to B12 below show the effects of selected compounds of the general formula (I) according to Table 1 on various harmful plants and an application rate corresponding to 1280 or 320 g/ha, which were obtained by the experimental procedure mentioned above.
# [4] = test system: harmful plants ABUTH, AMARE, ECHCG, LOLRI, MATIN, POAAN, SETVI, STEME, ALOMY, DIGSA, KCHSC and VERPE; assay: Herbicidal post-emergence action, summary of Tables B1-B12; conditions: application rate of 1280 or 320 g of active ingredient per hectare; summary in words
# How it was run: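 Activity scored by eye roughly 3 weeks post-treatment against untreated plants, from 0% (no effect) to 100% (plants dead). Application rates were 1280 or 320 g/ha, as aqueous WP/EC spray plus 0.5% additive at 600 L/ha, onto one-leaf-stage weeds grown 2–3 weeks in sandy loam.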
# Lolium rigidum (LOLRI) [5] = assay: Herbicidal pre-emergence action, test C (Table C2); conditions: dosage 1280 g/ha; visual scoring after about 3 weeks; 100% = plants have died, 0% = like control plants
# How it was run: (§3)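 Visual scoring after about 3 weeks in the greenhouse gave % activity relative to untreated controls, 100% meaning plants died. Compounds, as WP or EC with 0.5% additive, had been applied to covering soil at 1280 or 320 g/ha in 600 L/ha water.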
# Veronica persica (VERPE) [6] = assay: Herbicidal pre-emergence action, test C (Table C12); conditions: visual scoring vs untreated controls
# How it was run: as §3
# Setaria viridis (SETVI) [7] = assay: Herbicidal pre-emergence action, test C (Table C4); conditions: visual scoring after about 3 weeks, 100% = plants have died, 0% = like control plants
# How it was run: as §3
# [8] = test system: Alopecurus myosuroides (ALOMY); assay: Herbicidal pre-emergence action, test C (Table C9); conditions: visual scoring after about 3 weeks, 100% = plants have died, 0% = like control plants
# How it was run: as §3
# Setaria viridis (SETVI) [9] = assay: Herbicidal post-emergence action (Table B4); conditions: 1280 g/ha; rated visually after about 3 weeks; 100% = plants have died, 0% = like control plants
# Method: as §2
# Poa annua (POAAN) = assay: Herbicidal pre-emergence action, test C (Table C3); conditions: visual scoring after about 3 weeks, 100% = plants have died, 0% = like control plants
# How it was run: as §3
# [10] = test system: Echinochloa crus-galli (ECHCG); assay: Herbicidal pre-emergence action, test C (Table C1); conditions: visual scoring after about 3 weeks, 100% = plants have died, 0% = like control plants
# How it was run: as §3
# [11] = test system: Abutilon theophrasti (ABUTH); assay: Herbicidal pre-emergence action, test C (Table C5); conditions: visual scoring after about 3 weeks, 100% = plants have died, 0% = like control plants
# How it was run: as §3
# [12] = test system: Digitaria sanguinalis (DIGSA); assay: Herbicidal pre-emergence action, test C (Table C10); conditions: visual scoring after about 3 weeks, 100% = plants have died, 0% = like control plants
# How it was run: as §3
# [13] = test system: Amaranthus retroflexus (AMARE); assay: Herbicidal post-emergence action (Table B6); conditions: visual rating about 3 weeks after treatment, 100% = plants have died, 0% = like control plants
# How it was run: as §1
# Stellaria media (STEME) [14] = assay: Herbicidal post-emergence action (Table B8); conditions: visual rating about 3 weeks after treatment, 100% = plants have died, 0% = like control plants
# How it was run: as §1
# Bassia scoparia (KCHSC) [15] = assay: Herbicidal post-emergence action (Table B11); conditions: visual rating about 3 weeks after treatment, 100% = plants have died, 0% = like control plants
# How it was run: as §1
# Bassia scoparia (KCHSC) [16] = assay: Herbicidal pre-emergence action, test C (Table C11); conditions: visual scoring vs untreated controls
# Excerpt: Seeds of mono- and dicotyledonous weed plants were placed in plastic pots in sandy loam soil (doubly sown with one species each of mono- or dicotyledonous weed plants per pot) and covered with soil. The compounds of the invention, formulated in the form of wettable powders (WP) or as emulsion concentrates (EC), were then applied onto the surface of the covering soil as aqueous suspension or emulsion with addition of 0.5% additive at a water application rate of 600 liters per hectare (converted). After the treatment, the pots were placed in a greenhouse and kept under good growth conditions for the test plants. After about 3 weeks, the effect of the preparations was scored visually in comparison with untreated controls as percentages. For example, 100% activity=the plants have died, 0% activity=like control plants. Tables C1 to C12 below show the effects of selected compounds of the general formula (I) according to Table 1 on various harmful plants and an application rate corresponding to 1280 or 320 g/ha, which were obtained by the experimental procedure mentioned above.
# Stellaria media (STEME) [17] = assay: Herbicidal pre-emergence action, test C (Table C8); conditions: visual scoring after about 3 weeks, 100% = plants have died, 0% = like control plants
# How it was run: as §3
# [18] = test system: Matricaria inodora (MATIN); assay: Herbicidal pre-emergence action, test C (Table C7); conditions: visual scoring after about 3 weeks, 100% = plants have died, 0% = like control plants
# How it was run: as §3
# [19] = test system: harmful plants ABUTH, AMARE, ECHCG, LOLRI, MATIN, POAAN, SETVI, STEME, ALOMY, DIGSA, KCHSC and VERPE; assay: Herbicidal pre-emergence action (test C), summary of Tables C1-C12; conditions: application rate of 1280 or 320 g of active ingredient per hectare; summary in words
# How it was run: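 Visual % damage versus untreated plants (0% = like control, 100% = died) was scored after about 3 weeks in the greenhouse. Before emergence, seeds sown in sandy loam got a soil-surface spray of compound as WP or EC plus 0.5% additive, using 600 L/ha water at rates of 1280 or 320 g/ha.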
# Veronica persica (VERPE) [20] = assay: Herbicidal post-emergence action (Table B12); conditions: visual rating about 3 weeks after treatment, 100% = plants have died, 0% = like control plants
# How it was run: as §1
# [21] = test system: Abutilon theophrasti (ABUTH); assay: Herbicidal post-emergence action (Table B5); conditions: rated visually after about 3 weeks, 100% = plants have died, 0% = like control plants
# How it was run: as §1
# [22] = test system: Amaranthus retroflexus (AMARE); assay: Herbicidal pre-emergence action, test C (Table C6); conditions: visual scoring after about 3 weeks, 100% = plants have died, 0% = like control plants
# How it was run: as §3
structure (smiles),measurement,setting,value
Fc1cc(Cl)cnc1Oc1ccccc1-c1cncc(C(F)(F)F)c1 [Example 1-72],Post-emergence action against Digitaria sanguinalis (DIGSA),[1]; dosage 320 g/ha,90%
same,Post-emergence action against Digitaria sanguinalis (DIGSA),[1]; dosage 1280 g/ha,100%
same,Post-emergence action against Alopecurus myosuroides (ALOMY),[2]; 320 g/ha,100%
same,Post-emergence action against Alopecurus myosuroides (ALOMY),[2]; 1280 g/ha,100%
same,Post-emergence action against Lolium rigidum (LOLRI),Lolium rigidum (LOLRI) [3],100%
same,herbicidal activity against the harmful plants of Tables B1-B12 in post-emergence treatment,[4],very good herbicidal activity
same,Pre-emergence action against Lolium rigidum (LOLRI),Lolium rigidum (LOLRI) [5],100%
same,Pre-emergence action against Veronica persica (VERPE),Veronica persica (VERPE) [6]; dosage 320 g/ha,100%
same,Pre-emergence action against Veronica persica (VERPE),Veronica persica (VERPE) [6]; dosage 1280 g/ha,100%
same,Pre-emergence action against Setaria viridis (SETVI),Setaria viridis (SETVI) [7]; dosage 320 g/ha,100%
same,Pre-emergence action against Setaria viridis (SETVI),Setaria viridis (SETVI) [7]; dosage 1280 g/ha,100%
same,Pre-emergence action against Alopecurus myosuroides (ALOMY),[8]; dosage 320 g/ha,100%
same,Pre-emergence action against Alopecurus myosuroides (ALOMY),[8]; dosage 1280 g/ha,100%
same,Post-emergence action against Setaria viridis (SETVI),Setaria viridis (SETVI) [9],90%
same,Pre-emergence action against Poa annua (POAAN),Poa annua (POAAN); dosage 320 g/ha,100%
same,Pre-emergence action against Poa annua (POAAN),Poa annua (POAAN); dosage 1280 g/ha,100%
same,Pre-emergence action against Echinochloa crus-galli (ECHCG),[10]; dosage 320 g/ha,100%
same,Pre-emergence action against Echinochloa crus-galli (ECHCG),[10]; dosage 1280 g/ha,100%
same,Pre-emergence action against Abutilon theophrasti (ABUTH),[11]; dosage 320 g/ha,100%
same,Pre-emergence action against Abutilon theophrasti (ABUTH),[11]; dosage 1280 g/ha,100%
same,Pre-emergence action against Digitaria sanguinalis (DIGSA),[12]; dosage 320 g/ha,100%
same,Pre-emergence action against Digitaria sanguinalis (DIGSA),[12]; dosage 1280 g/ha,100%
same,Post-emergence action against Amaranthus retroflexus (AMARE),[13]; dosage 320 g/ha,100%
same,Post-emergence action against Amaranthus retroflexus (AMARE),[13]; dosage 1280 g/ha,100%
same,Post-emergence action against Stellaria media (STEME),Stellaria media (STEME) [14]; dosage 320 g/ha,100%
same,Post-emergence action against Stellaria media (STEME),Stellaria media (STEME) [14]; dosage 1280 g/ha,100%
same,Post-emergence action against Bassia scoparia (KCHSC),Bassia scoparia (KCHSC) [15]; dosage 320 g/ha,100%
same,Post-emergence action against Bassia scoparia (KCHSC),Bassia scoparia (KCHSC) [15]; dosage 1280 g/ha,100%
same,Pre-emergence action against Bassia scoparia (KCHSC),Bassia scoparia (KCHSC) [16]; dosage 320 g/ha,100%
same,Pre-emergence action against Bassia scoparia (KCHSC),Bassia scoparia (KCHSC) [16]; dosage 1280 g/ha,100%
same,Pre-emergence action against Stellaria media (STEME),Stellaria media (STEME) [17]; dosage 320 g/ha,90%
same,Pre-emergence action against Stellaria media (STEME),Stellaria media (STEME) [17]; dosage 1280 g/ha,100%
same,Pre-emergence action against Matricaria inodora (MATIN),[18]; dosage 320 g/ha,90%
same,Pre-emergence action against Matricaria inodora (MATIN),[18]; dosage 1280 g/ha,100%
same,herbicidal activity against the harmful plants of Tables C1-C12 in pre-emergence treatment,[19],very good herbicidal activity
same,Post-emergence action against Veronica persica (VERPE),Veronica persica (VERPE) [20]; dosage 320 g/ha,100%
same,Post-emergence action against Veronica persica (VERPE),Veronica persica (VERPE) [20]; dosage 1280 g/ha,100%
same,Post-emergence action against Abutilon theophrasti (ABUTH),[21]; 320 g/ha,100%
same,Post-emergence action against Abutilon theophrasti (ABUTH),[21]; 1280 g/ha,100%
same,Pre-emergence action against Amaranthus retroflexus (AMARE),[22]; dosage 320 g/ha,100%
same,Pre-emergence action against Amaranthus retroflexus (AMARE),[22]; dosage 1280 g/ha,100%
